Earlier results on 3 molecules are cited in patent US9023395B2, “Formulation of active agent loaded activated PLGA nanoparticles for targeted cancer nano-therapeutics” (University of North Texas Health Science Center at Fort …, priority 2007, dated 2015).

SMILES strings stand for the structures.

The conditions of this series: for Solubility: solvent in which the linker is soluble.

On to `O=C(CCCC(=O)ON1C(=O)CCC1=O)ON1C(=O)CCC1=O` [DSG, Disuccinimidyl glutarate], for which the water solubility entry was “water insoluble” and the Solubility result was “DMSO”. Turning to `CCCCCCCCCCCCCCCC(=O)ON1C(=O)CCC1=O` [PAS, Palmitic acid N- hydroxysuccin- imide ester], the Solubility entry was “DMSO”. For `O=C(CCN1C(=O)C=CC1=O)ON1C(=O)CCC1=O` [BMPS, N-[b-maleimidopropyl-oxy] succinimide ester], the water solubility entry is “water insoluble” and the Solubility result was “DMSO”.
